{"source": "patent US20220341922A1", "about": "“FLUORESCENT PROBE FOR USE IN DETECTION OF BRAIN TUMOR” (The University of Tokyo, priority 2019, published 2022)", "key": {"cathepsin D [1]": {"biological_target": "T1, cathepsin D (Homo sapiens, UniProt P07339)", "T1 sequence (P07339 65-412, species assumed)": "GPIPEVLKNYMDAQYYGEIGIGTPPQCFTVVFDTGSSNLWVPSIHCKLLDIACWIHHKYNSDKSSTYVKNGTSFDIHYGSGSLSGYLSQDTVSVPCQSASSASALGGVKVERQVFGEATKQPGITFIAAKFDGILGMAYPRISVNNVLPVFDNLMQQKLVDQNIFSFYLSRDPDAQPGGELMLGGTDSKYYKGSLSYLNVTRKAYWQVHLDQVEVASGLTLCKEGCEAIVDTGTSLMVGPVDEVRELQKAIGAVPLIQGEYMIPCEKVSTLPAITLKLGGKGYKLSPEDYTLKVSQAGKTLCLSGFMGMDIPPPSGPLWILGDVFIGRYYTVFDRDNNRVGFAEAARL", "experiment": "Change in fluorescence intensity of candidate enzymes using inhibitors", "type": "biochemical", "settings": "candidate enzyme cathepsin D"}, "calpain 1 [2]": {"biological_target": "T2, calpain 1 (Homo sapiens, UniProt P07384)", "T2 sequence (P07384 1-714)": "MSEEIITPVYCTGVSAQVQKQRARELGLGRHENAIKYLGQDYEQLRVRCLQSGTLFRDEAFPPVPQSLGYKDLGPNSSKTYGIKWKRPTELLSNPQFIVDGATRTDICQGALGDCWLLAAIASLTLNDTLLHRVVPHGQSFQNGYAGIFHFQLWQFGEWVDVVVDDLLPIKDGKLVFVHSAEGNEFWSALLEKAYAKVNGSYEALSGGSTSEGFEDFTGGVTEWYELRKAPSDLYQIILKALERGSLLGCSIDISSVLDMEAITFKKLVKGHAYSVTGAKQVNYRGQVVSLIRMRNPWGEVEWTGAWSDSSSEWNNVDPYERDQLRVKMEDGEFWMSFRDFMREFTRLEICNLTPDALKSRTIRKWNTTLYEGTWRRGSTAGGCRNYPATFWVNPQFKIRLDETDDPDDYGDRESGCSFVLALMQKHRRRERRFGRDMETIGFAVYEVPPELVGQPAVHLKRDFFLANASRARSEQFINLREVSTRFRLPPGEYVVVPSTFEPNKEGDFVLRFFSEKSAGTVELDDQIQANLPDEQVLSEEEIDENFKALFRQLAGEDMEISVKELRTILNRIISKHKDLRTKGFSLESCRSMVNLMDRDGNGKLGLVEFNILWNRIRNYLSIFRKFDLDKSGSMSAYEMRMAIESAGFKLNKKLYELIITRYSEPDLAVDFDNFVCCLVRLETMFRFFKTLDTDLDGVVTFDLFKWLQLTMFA", "T2 sequence (P04632 1-268 partner)": "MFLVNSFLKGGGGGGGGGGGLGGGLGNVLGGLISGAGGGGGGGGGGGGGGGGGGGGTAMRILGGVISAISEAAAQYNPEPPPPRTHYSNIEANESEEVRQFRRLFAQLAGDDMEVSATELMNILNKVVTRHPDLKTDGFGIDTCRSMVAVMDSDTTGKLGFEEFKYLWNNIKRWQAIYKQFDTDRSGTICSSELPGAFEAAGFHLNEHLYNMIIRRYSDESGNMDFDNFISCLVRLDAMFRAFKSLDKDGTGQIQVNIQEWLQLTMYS", "experiment": "Change in fluorescence intensity of candidate enzymes using inhibitors", "type": "biochemical", "settings": "candidate enzyme calpain 1"}, "[3]": {"system": "fresh glioblastoma and peritumoral tissue", "experiment": "Screening by fluorescent probe on fresh glioblastoma and peritumoral tissue specimens", "settings": "for tumor-specific fluorescent labeling as compared with the surrounding tissue: 50 μM probe solution in PBS, 0.5% v/v DMSO, Ex 465 nm, Em 515 nm, FIGS. 1 and 2; for fluorescence intensity in the tumor: 50 μM probe solution", "procedure": "The fluorescent intensity of fresh glioblastoma and peritumoral tissue were compared using the fluorescent probes YK190, YK213, YK19, and YK281 synthesized in Example 1. As a comparative example, hydroxymethyl rhodamine green (HRMG) having no dipeptide site was used.\n50 μM probe solutions (200 μL) in PBS, containing 0.5% v/v DMSO as a co-solvent was added dropwise to each specimen, and the fluorescence intensity was measured over time using Maestro In Vivo Imaging System Ex. • Excitation wavelength: 465 nm • Emission wavelength: 515 nm"}, "calpain 1 [4]": {"biological_target": "T2, calpain 1", "experiment": "Reaction of fluorescent probe with purified enzyme", "type": "biochemical", "settings": "purified calpain 1; FIG. 4"}, "[5]": {"system": "cathepsin D knocked down in U87 glioblastoma cell line", "experiment": "Verification by siRNA knock-down using U87 cell line", "type": "cell-based", "settings": "48 hours culture, FIG. 5", "procedure": "(§1) Calpain 1 and cathepsin D were knocked down by siRNA in a cell line, and a reaction with the fluorescent probe YK190 was observed. The experiment was conducted in accordance with the procedure shown below.\n(§2) Transfection of U87, a glioblastoma cell line, was done with siRNA utilizing lipofectamine. A reaction with a fluorescent probe was observed after culture for 48 hours."}, "[6]": {"system": "calpain 1 knocked down in U87 glioblastoma cell line", "experiment": "Verification by siRNA knock-down using U87 cell line", "type": "cell-based", "settings": "calpain 1 knocked down by siRNA, 48 hours culture; FIG. 5", "procedure": "as §1, §2"}, "cathepsin D [7]": {"biological_target": "T1, cathepsin D", "experiment": "Reaction of fluorescent probe with purified enzyme", "type": "biochemical", "settings": "FIG. 4"}}}
{"smiles": "COCCOCCOC(=O)N[C@@H](CC(C)C)C(=O)N[C@@H](Cc1ccccc1)C(=O)C(=O)NC1CC1", "note": "[SNJ-1945]", "values": [{"measurement": "change in fluorescence intensity with inhibitor", "setting": "cathepsin D [1]", "result": "fluorescence suppression"}, {"measurement": "change in fluorescence intensity with inhibitor", "setting": "calpain 1 [2]", "result": "fluorescence suppression"}]}
{"smiles": "N[C@@H](Cc1ccc(O)cc1)C(=O)O", "note": "[YK19, Tyrosine]", "values": [{"measurement": "tumor-specific fluorescent labeling as compared with the surrounding tissue", "setting": "[3]", "result": "a fluorescent response was also well-obtained in a tumor-specific manner"}]}
{"smiles": "N=C(N)NCCC[C@H](N)C(=O)O", "note": "[YK190, Arginine]", "values": [{"measurement": "change in fluorescence intensity by reaction with the probe", "setting": "calpain 1 [4]", "result": "significant increase in fluorescence intensity"}, {"measurement": "fluorescence intensity compared to the control U87 cell line", "setting": "[5]", "result": "reduced fluorescence intensity"}, {"measurement": "fluorescence intensity compared to the control U87 cell line", "setting": "[6]", "result": "reduced fluorescence intensity"}, {"measurement": "change in fluorescence intensity by reaction with the probe", "setting": "cathepsin D [7]", "result": "significant increase in fluorescence intensity"}, {"measurement": "tumor-specific fluorescent labeling as compared with the surrounding tissue", "setting": "[3]", "result": "fluorescent labeling was performed in a tumor-specific manner"}, {"measurement": "fluorescence intensity in the tumor", "setting": "[3]; FIG. 2", "result": "high fluorescence intensity"}, {"measurement": "fluorescence intensity relative to YK213", "setting": "[3]; in the tumor, FIG. 2", "result": "about two times that of YK213"}]}
{"smiles": "N[C@@H](Cc1c[nH]cn1)C(=O)O", "note": "[YK213, Histidine]", "values": [{"measurement": "tumor-specific fluorescent labeling as compared with the surrounding tissue", "setting": "[3]", "result": "fluorescent labeling was performed in a tumor-specific manner"}, {"measurement": "fluorescence intensity in the tumor", "setting": "[3]; FIG. 2", "result": "high fluorescence intensity"}]}
